According to PMC10862732 (bioRxiv, 2024):

Test system: T7 LysY/Iq E. coli
Assay type: cell-based
Conditions: 0 – 0.5 mM IPTG, 37 °C, 12 hours, OD600

## RRIRFRPPYL•••G••PRFPPPFPIPRIPRIP [Tur1a]
  Host growth upon induction of AMP expression with IPTG (self-depletion): dramatically slowed growth
